# Tested on: MV-4-11 cells
# Assay: Gene expression microarray analysis (Affymetrix PrimeView) and GSEA
# Format: cell-based, human
# Design: RFU PODN (11730768_x_at) / Fold change /veh PODN (11730768_x_at) / RFU LINC00158 (11744669_a_at) / Fold change /veh LINC00158 (11744669_a_at) / RFU DUSP10 (11751237_a_at) / Fold change /veh DUSP10 (11751237_a_at) / RFU ID3 (11757404_x_at) / Fold change /veh ID3 (11757404_x_at) / RFU PLEKHG5 (11737974_s_at) / Fold change /veh PLEKHG5 (11737974_s_at) / RFU LRRC4B (11730491_at) / Fold change /veh LRRC4B (11730491_at) / RFU GIMAP4 (11747438_a_at) / Fold change /veh GIMAP4 (11747438_a_at) / RFU KRT8 (11758183_x_at) / Fold change /veh KRT8 (11758183_x_at) / RFU CNN1 (11734310_a_at) / Fold change /veh CNN1 (11734310_a_at) / RFU VPS37D (11726825_at) / Fold change /veh VPS37D (11726825_at) / RFU C10orf10 (11716522_x_at) / Fold change /veh C10orf10 (11716522_x_at) / RFU KIR2DL2 /// KIR2DL4 /// KIR2DL5A /// KIR2DL5B /// KIR2DS1 /// KIR2DS2 /// KIR2DS3 /// KIR2DS4 /// KIR3DL3 /// KIR3DL3 /// KIR3DS1 (11738374_at) / Fold change /veh KIR2DL2 /// KIR2DL4 /// KIR2DL5A /// KIR2DL5B /// KIR2DS1 /// KIR2DS2 /// KIR2DS3 /// KIR2DS4 /// KIR3DL3 /// KIR3DL3 /// KIR3DS1 (11738374_at) / RFU C1QL1 (11718748_at) / Fold change /veh C1QL1 (11718748_at) / RFU TMPRSS4 (11747572_a_at) / Fold change /veh TMPRSS4 (11747572_a_at) / RFU HAMP (11756126_x_at) / Fold change /veh HAMP (11756126_x_at) / RFU RNFT2 (11725882_a_at) / Fold change /veh RNFT2 (11725882_a_at) / RFU NR4A2 (11747474_a_at) / Fold change /veh NR4A2 (11747474_a_at) / RFU ABCC12 (11746883_a_at) / Fold change /veh ABCC12 (11746883_a_at) / RFU TMEM136 (11760407_x_at) / Fold change /veh TMEM136 (11760407_x_at) / RFU CLDN22 /// WWC2 (11732394_at) / Fold change /veh CLDN22 /// WWC2 (11732394_at) / RFU HLA-DPB1 (11760878_x_at) / Fold change /veh HLA-DPB1 (11760878_x_at) / RFU SPINT1 (11716480_a_at) / Fold change /veh SPINT1 (11716480_a_at) / RFU GAP43 (11754022_s_at) / Fold change /veh GAP43 (11754022_s_at) / RFU A4GNT (11735810_at) / Fold change /veh A4GNT (11735810_at) / RFU PRB3 (11715151_x_at) / Fold change /veh PRB3 (11715151_x_at) / RFU TUBB4B (11761932_at) / Fold change /veh TUBB4B (11761932_at) / RFU CAPN14 (11732068_a_at) / Fold change /veh CAPN14 (11732068_a_at) / RFU TMCC2 (11721928_a_at) / Fold change /veh TMCC2 (11721928_a_at) / RFU IRGQ (11745062_a_at) / Fold change /veh IRGQ (11745062_a_at) / RFU FAM174B (11720279_a_at) / Fold change /veh FAM174B (11720279_a_at) / RFU TMPRSS4 (11748680_a_at) / Fold change /veh TMPRSS4 (11748680_a_at) / RFU FAM212B (11763350_a_at) / Fold change /veh FAM212B (11763350_a_at) / RFU PLEKHG5 (11743358_a_at) / Fold change /veh PLEKHG5 (11743358_a_at) / RFU ZSCAN30 (11745921_a_at) / Fold change /veh ZSCAN30 (11745921_a_at) / RFU CMKLR1 (11741424_a_at) / Fold change /veh CMKLR1 (11741424_a_at) / RFU LOC101060620 /// MAPK8IP1 (11723275_at) / Fold change /veh LOC101060620 /// MAPK8IP1 (11723275_at) / RFU SPTSSB (11747773_x_at) / Fold change /veh SPTSSB (11747773_x_at) / RFU PRSS12 (11739890_at) / Fold change /veh PRSS12 (11739890_at) / RFU BIN1 (11741810_x_at) / Fold change /veh BIN1 (11741810_x_at) / RFU WNT11 (11732464_a_at) / Fold change /veh WNT11 (11732464_a_at) / RFU C10orf10 (11716521_a_at) / Fold change /veh C10orf10 (11716521_a_at) / RFU C5orf56 (11738089_at) / Fold change /veh C5orf56 (11738089_at) / RFU CYB561 (11721691_x_at) / Fold change /veh CYB561 (11721691_x_at) / RFU ANKRD19P (11752326_a_at) / Fold change /veh ANKRD19P (11752326_a_at) / RFU OR2T12 /// OR2T33 /// OR2T8 (11738714_s_at) / Fold change /veh OR2T12 /// OR2T33 /// OR2T8 (11738714_s_at) / RFU VCAN (11748164_a_at) / Fold change /veh VCAN (11748164_a_at) / RFU JSRP1 (11732532_at) / Fold change /veh JSRP1 (11732532_at) / RFU KRTAP10-11 (11738290_x_at) / Fold change /veh KRTAP10-11 (11738290_x_at) / RFU MYO3A (11730013_a_at) / Fold change /veh MYO3A (11730013_a_at) / RFU EBF3 (11725865_a_at) / Fold change /veh EBF3 (11725865_a_at) / RFU CAMK2N1 (11719241_x_at) / Fold change /veh CAMK2N1 (11719241_x_at) / RFU C5orf56 (11738088_a_at) / Fold change /veh C5orf56 (11738088_a_at) / RFU OLFML3 (11715873_a_at) / Fold change /veh OLFML3 (11715873_a_at) / RFU LOC100653217 /// NTM (11731650_a_at) / Fold change /veh LOC100653217 /// NTM (11731650_a_at) / RFU MAPK11 (11762145_a_at) / Fold change /veh MAPK11 (11762145_a_at) / RFU FIZ1 (11724087_x_at) / Fold change /veh FIZ1 (11724087_x_at) / RFU OASL (11726364_x_at) / Fold change /veh OASL (11726364_x_at) / RFU SOX15 (11748057_x_at) / Fold change /veh SOX15 (11748057_x_at) / RFU CD79A (11719716_a_at) / Fold change /veh CD79A (11719716_a_at) / RFU HIST1H1D (11736915_at) / Fold change /veh HIST1H1D (11736915_at) / RFU CASKIN2 (11723855_a_at) / Fold change /veh CASKIN2 (11723855_a_at) / RFU LOC730098 (11760151_x_at) / Fold change /veh LOC730098 (11760151_x_at) / RFU OR4N2 (11742367_at) / Fold change /veh OR4N2 (11742367_at) / RFU PRRT2 (11749266_a_at) / Fold change /veh PRRT2 (11749266_a_at) / RFU SNX32 (11753110_a_at) / Fold change /veh SNX32 (11753110_a_at) / RFU CDHR5 (11726645_a_at) / Fold change /veh CDHR5 (11726645_a_at) / RFU RCAN1 (11760418_a_at) / Fold change /veh RCAN1 (11760418_a_at) / RFU FAM167A (11723789_a_at) / Fold change /veh FAM167A (11723789_a_at) / RFU FAM26E (11764081_at) / Fold change /veh FAM26E (11764081_at) / RFU ISYNA1 (11749810_s_at) / Fold change /veh ISYNA1 (11749810_s_at) / RFU ACY1 (11761880_at) / Fold change /veh ACY1 (11761880_at) / RFU 11764098_at / Fold change /veh 11764098_at / RFU SAMD14 (11745864_x_at) / Fold change /veh SAMD14 (11745864_x_at) / RFU NPB (11741838_a_at) / Fold change /veh NPB (11741838_a_at) / RFU TMPRSS6 (11731388_a_at) / Fold change /veh TMPRSS6 (11731388_a_at) / RFU KRTAP10-2 (11738614_at) / Fold change /veh KRTAP10-2 (11738614_at) / RFU ARHGAP8 /// PRR5-ARHGAP8 (11727945_x_at) / Fold change /veh ARHGAP8 /// PRR5-ARHGAP8 (11727945_x_at) / RFU KRTAP5-7 /// NADSYN1 (11734609_at) / Fold change /veh KRTAP5-7 /// NADSYN1 (11734609_at) / RFU RASL12 (11751679_a_at) / Fold change /veh RASL12 (11751679_a_at) / RFU CDKN2B (11736163_a_at) / Fold change /veh CDKN2B (11736163_a_at) / RFU PRF1 (11729649_at) / Fold change /veh PRF1 (11729649_at) / RFU, ZNF638 /// ZNF638-IT1 / Fold change vs veh, ZNF638 /// ZNF638-IT1 / RFU, PANK3 / Fold change vs veh, PANK3 / RFU, SH3YL1 / Fold change vs veh, SH3YL1 / RFU, ZEB2 / Fold change vs veh, ZEB2 / RFU, NRIP1 / Fold change vs veh, NRIP1 / RFU, PTTG1IP / Fold change vs veh, PTTG1IP / RFU, CAPN2 / Fold change vs veh, CAPN2 / RFU, MED14 / Fold change vs veh, MED14 / RFU, SNORA58 / Fold change vs veh, SNORA58 / RFU, C1orf63 / Fold change vs veh, C1orf63 / RFU, LRRFIP1 / Fold change vs veh, LRRFIP1 / RFU, NDUFAF7 / Fold change vs veh, NDUFAF7 / RFU, SLC12A2 / Fold change vs veh, SLC12A2 / RFU, IBTK / Fold change vs veh, IBTK / RFU, ESF1 / Fold change vs veh, ESF1 / Fold change vs veh, TMEM50B / RFU, TAOK1 / Fold change vs veh, TAOK1 / RFU, ACBD3 / Fold change vs veh, ACBD3 / RFU, TMA16 / Fold change vs veh, TMA16 / RFU, RWDD3 / Fold change vs veh, RWDD3 / RFU, BCAT1 / Fold change vs veh, BCAT1 / RFU, EDEM3 / Fold change vs veh, EDEM3 / RFU, TMEM33 / Fold change vs veh, TMEM33 / RFU, WDR75 / Fold change vs veh, WDR75 / RFU, AHCTF1 / Fold change vs veh, AHCTF1 / RFU, TFRC / Fold change vs veh, TFRC / RFU, ZDHHC17 / Fold change vs veh, ZDHHC17 / RFU, NOM1 / Fold change vs veh, NOM1 / RFU, ARL8B / Fold change vs veh, ARL8B / RFU, ZBTB11 / Fold change vs veh, ZBTB11 / RFU, TAMM41 / Fold change vs veh, TAMM41 / RFU, KIAA1704 /// LOC100996395 / Fold change vs veh, KIAA1704 /// LOC100996395 / RFU, ING1 / Fold change vs veh, ING1 / RFU, TRMT61B / Fold change vs veh, TRMT61B / RFU, FUBP3 / Fold change vs veh, FUBP3 / RFU, TP53 / Fold change vs veh, TP53 / RFU, TNKS2 / Fold change vs veh, TNKS2 / RFU, ZFP14 / Fold change vs veh, ZFP14 / RFU, ACTR2 / Fold change vs veh, ACTR2 / RFU, PPP3R1 / Fold change vs veh, PPP3R1 / RFU, PIK3R1 / Fold change vs veh, PIK3R1 / RFU, HNRNPA1 / Fold change vs veh, HNRNPA1 / RFU, RNF170 / Fold change vs veh, RNF170 / RFU, ZNF28 / Fold change vs veh, ZNF28 / RFU, RNGTT / Fold change vs veh, RNGTT / RFU, OGT / Fold change vs veh, OGT / RFU, BRD1 / Fold change vs veh, BRD1 / RFU, MARS / Fold change vs veh, MARS / RFU, ZNF655 / Fold change vs veh, ZNF655 / RFU, FAHD1 / Fold change vs veh, FAHD1 / RFU, BDP1 / Fold change vs veh, BDP1 / RFU, LRRCC1 / Fold change vs veh, LRRCC1 / RFU, ARID1A / Fold change vs veh, ARID1A / RFU, ZNF146 / Fold change vs veh, ZNF146 / RFU, ZNF330 / Fold change vs veh, ZNF330 / RFU, GPN3 / Fold change vs veh, GPN3 / RFU, C9orf123 / Fold change vs veh, C9orf123 / RFU, N4BP2L2 / Fold change vs veh, N4BP2L2 / RFU, ARFIP1 / Fold change vs veh, ARFIP1 / RFU, FAM179B / Fold change vs veh, FAM179B / RFU, BCL10 / Fold change vs veh, BCL10 / RFU, UHRF1BP1L / Fold change vs veh, UHRF1BP1L / RFU, BET1 / Fold change vs veh, BET1 / RFU, CNOT2 / Fold change vs veh, CNOT2 / RFU, ZNF268 / Fold change vs veh, ZNF268 / Fold change vs veh, ZNF507 / RFU, DGCR2 / Fold change vs veh, DGCR2 / RFU, WDSUB1 / Fold change vs veh, WDSUB1 / Fold change vs veh, HSP90B1 /// MIR3652 / RFU, ADSS / Fold change vs veh, ADSS / RFU, GK / Fold change vs veh, GK / RFU, ZNF148 / Fold change vs veh, ZNF148 / RFU, TAF9 / Fold change vs veh, TAF9 / RFU, SLC1A5 / Fold change vs veh, SLC1A5 / RFU, SLMO2 / Fold change vs veh, SLMO2 / RFU, ABCC4 / Fold change vs veh, ABCC4 / RFU, LOC101060439 /// RAP1B / Fold change vs veh, LOC101060439 /// RAP1B / RFU, RFX7 / Fold change vs veh, RFX7 / RFU, GTPBP10 / Fold change vs veh, GTPBP10 / RFU, CNEP1R1 / Fold change vs veh, CNEP1R1 / RFU, BIVM-ERCC5 /// ERCC5 / Fold change vs veh, BIVM-ERCC5 /// ERCC5 / RFU, ILF3 / Fold change vs veh, ILF3 / RFU 11762660_at / Fold change /veh 11762660_at / RFU VCAN (11757783_s_at) / Fold change /veh VCAN (11757783_s_at) / RFU DDX43 (11728927_at) / Fold change /veh DDX43 (11728927_at) / RFU KRT8 (11758188_x_at) / Fold change /veh KRT8 (11758188_x_at) / RFU NKD1 (11759106_at) / Fold change /veh NKD1 (11759106_at) / RFU SRD5A1 (11742802_a_at) / Fold change /veh SRD5A1 (11742802_a_at) / RFU TPSAB1 /// TPSB2 (11721975_s_at) / Fold change /veh TPSAB1 /// TPSB2 (11721975_s_at) / RFU GSTM3 (11746129_a_at) / Fold change /veh GSTM3 (11746129_a_at) / RFU IL23R (11737362_x_at) / Fold change /veh IL23R (11737362_x_at) / RFU TMEM51 (11727254_a_at) / Fold change /veh TMEM51 (11727254_a_at) / RFU PIWIL2 (11732686_x_at) / Fold change /veh PIWIL2 (11732686_x_at) / RFU ORM1 (11744905_x_at) / Fold change /veh ORM1 (11744905_x_at) / RFU CCDC152 (11743942_at) / Fold change /veh CCDC152 (11743942_at) / RFU ECM1 (11717891_a_at) / Fold change /veh ECM1 (11717891_a_at) / RFU IL23R (11748794_a_at) / Fold change /veh IL23R (11748794_a_at) / RFU TNFAIP8L3 (11732012_x_at) / Fold change /veh TNFAIP8L3 (11732012_x_at) / RFU MBOAT4 (11741988_at) / Fold change /veh MBOAT4 (11741988_at) / RFU 11764193_at / Fold change /veh 11764193_at / RFU TMEM53 (11763286_at) / Fold change /veh TMEM53 (11763286_at) / RFU MAGEB2 (11727129_at) / Fold change /veh MAGEB2 (11727129_at) / RFU TMEM200A (11744735_a_at) / Fold change /veh TMEM200A (11744735_a_at) / RFU CCDC152 (11751479_a_at) / Fold change /veh CCDC152 (11751479_a_at) / RFU FAM211A (11726209_a_at) / Fold change /veh FAM211A (11726209_a_at) / RFU RGS16 (11746705_a_at) / Fold change /veh RGS16 (11746705_a_at) / RFU VCAN (11755009_s_at) / Fold change /veh VCAN (11755009_s_at) / RFU RHOB (11743442_s_at) / Fold change /veh RHOB (11743442_s_at) / RFU RGS16 (11720943_a_at) / Fold change /veh RGS16 (11720943_a_at) / RFU RGS16 (11720944_at) / Fold change /veh RGS16 (11720944_at) / RFU, VPS4B / Fold change vs veh, VPS4B / RFU, CREB1 / Fold change vs veh, CREB1 / RFU, DNAJC13 / Fold change vs veh, DNAJC13 / RFU, GNAQ / Fold change vs veh, GNAQ / RFU, CDK5R1 / Fold change vs veh, CDK5R1 / RFU, ZRANB3 / Fold change vs veh, ZRANB3 / RFU, CUL4A / Fold change vs veh, CUL4A / RFU, CCNY / Fold change vs veh, CCNY / RFU, UFL1 / Fold change vs veh, UFL1 / RFU, COG3 / Fold change vs veh, COG3 / RFU, DIAPH2 / Fold change vs veh, DIAPH2 / RFU, SKA2 / Fold change vs veh, SKA2 / RFU, AFF3 / Fold change vs veh, AFF3 / RFU, LMF1 / Fold change vs veh, LMF1 / RFU, IPO11 / Fold change vs veh, IPO11 / RFU, DFFB / Fold change vs veh, DFFB / RFU, FOXP1 / Fold change vs veh, FOXP1 / RFU, CARD8 / Fold change vs veh, CARD8 / RFU, STRN3 / Fold change vs veh, STRN3 / RFU, ADK / Fold change vs veh, ADK / RFU, RASSF2 / Fold change vs veh, RASSF2 / RFU, WIPF1 / Fold change vs veh, WIPF1 / RFU, LARP1B / Fold change vs veh, LARP1B / RFU, RASA1 / Fold change vs veh, RASA1 / RFU, RB1 / Fold change vs veh, RB1 / RFU, PPFIA1 / Fold change vs veh, PPFIA1 / RFU, MAT2A / Fold change vs veh, MAT2A / RFU, CCT5 / Fold change vs veh, CCT5 / RFU, WDR92 / Fold change vs veh, WDR92 / RFU, CUX1 / Fold change vs veh, CUX1 / RFU, TTC7A / Fold change vs veh, TTC7A / RFU, TMEM135 / Fold change vs veh, TMEM135 / RFU, DEPTOR / Fold change vs veh, DEPTOR / RFU, CPM / Fold change vs veh, CPM / RFU, DNAJB6 / Fold change vs veh, DNAJB6 / RFU, CACNA2D3 / Fold change vs veh, CACNA2D3 / RFU, DTX4 / Fold change vs veh, DTX4 / RFU, TFCP2 / Fold change vs veh, TFCP2 / RFU, GMCL1 /// GMCL1P1 / Fold change vs veh, GMCL1 /// GMCL1P1 / RFU, AEBP2 / Fold change vs veh, AEBP2 / RFU, SNHG1 /// SNORD22 /// SNORD25 /// SNORD26 /// SNORD27 /// SNORD28 /// SNORD29 /// SNORD31 / Fold change vs veh, SNHG1 /// SNORD22 /// SNORD25 /// SNORD26 /// SNORD27 /// SNORD28 /// SNORD29 /// SNORD31 / Fold change (Aza/veh), C12orf56 (ProbeSet 11735607_a_at) / Fold change (ACY-1035/veh), C12orf56 (ProbeSet 11735607_a_at) / Fold change (Aza/veh), FGFR1OP (ProbeSet 11751329_s_at) / Fold change (ACY-1035/veh), FGFR1OP (ProbeSet 11751329_s_at) / Fold change (Aza/veh), VPS36 (ProbeSet 11739960_a_at) / Fold change (ACY-1035/veh), VPS36 (ProbeSet 11739960_a_at) / RFU SYPL1 (11715823_x_at) / Fold change /veh SYPL1 (11715823_x_at) / RFU IGFBP7 (11715501_s_at) / Fold change /veh IGFBP7 (11715501_s_at) / RFU REEP3 (11722064_at) / Fold change /veh REEP3 (11722064_at) / RFU IGLL1 (11728026_x_at) / Fold change /veh IGLL1 (11728026_x_at): dose or concentration left out as unconfirmed
# Details: ProbeSet 11717876_a_at; LIST D
smiles,measurement,value
Nc1ncn([C@@H]2O[C@H](CO)[C@@H](O)[C@H]2O)c(=O)n1 [azacitidine],"RFU, PPFIA1",24.22 RFU

# From article PMC5218480 (PLoS ONE, 2017)
